Activity calls are given as the source filed them. The calls are words filed in the database; no cut-off is given here.
Key:
[1] = biological target: Vascular endothelial growth factor receptor 1 (Homo sapiens, UniProt P17948)
[2] = biological target: Vascular endothelial growth factor receptor 2 (Homo sapiens, UniProt P35968)
[3] = biological target: Fibroblast growth factor receptor 1 (Homo sapiens, UniProt P11362)
[4] = Mouse plasma levels are obtained 6 hr after oral administration of 100 mg/kg of compound.; format: ADME, organism-based; set-up: dose 100 mg/kg, route oral; details: read-out: Plasma level
HUVEC = assay: Inhibition of unstimulated HUVEC cell proliferation; format: functional, cell-based; details: Homo sapiens
[5] = Mouse plasma levels are obtained 24 hr after oral administration of 100 mg/kg of compound.; format: ADME, organism-based; set-up: dose 100 mg/kg, route oral; details: read-out: Plasma level
[6] = biological target: Vascular endothelial growth factor receptor (Homo sapiens, UniProt P17948+P35916+P35968); details: huvec
[7] = biological target: Fibroblast growth factor receptor (Homo sapiens, UniProt P22607+P11362+P22455+P21802); details: huvec
Rattus norvegicus [8] = assay: Percent inhibition of VEGF-mediated estradiol benzoate-induced rat uterus weight gain at 100 mg/kg oral dose; NA is Not Active; format: functional, organism-based; set-up: dose 100 mg/kg
Rattus norvegicus [9] = assay: Percent inhibition of VEGF-mediated estradiol benzoate-induced rat uterus weight gain at 60 mg/kg oral dose; format: functional
Rattus norvegicus [10] = assay: Percent inhibition of VEGF-mediated estradiol benzoate-induced rat uterus weight gain at 100 mg/kg oral dose; format: functional

Chain of Vascular endothelial growth factor receptor 1 (P17948 whole entry): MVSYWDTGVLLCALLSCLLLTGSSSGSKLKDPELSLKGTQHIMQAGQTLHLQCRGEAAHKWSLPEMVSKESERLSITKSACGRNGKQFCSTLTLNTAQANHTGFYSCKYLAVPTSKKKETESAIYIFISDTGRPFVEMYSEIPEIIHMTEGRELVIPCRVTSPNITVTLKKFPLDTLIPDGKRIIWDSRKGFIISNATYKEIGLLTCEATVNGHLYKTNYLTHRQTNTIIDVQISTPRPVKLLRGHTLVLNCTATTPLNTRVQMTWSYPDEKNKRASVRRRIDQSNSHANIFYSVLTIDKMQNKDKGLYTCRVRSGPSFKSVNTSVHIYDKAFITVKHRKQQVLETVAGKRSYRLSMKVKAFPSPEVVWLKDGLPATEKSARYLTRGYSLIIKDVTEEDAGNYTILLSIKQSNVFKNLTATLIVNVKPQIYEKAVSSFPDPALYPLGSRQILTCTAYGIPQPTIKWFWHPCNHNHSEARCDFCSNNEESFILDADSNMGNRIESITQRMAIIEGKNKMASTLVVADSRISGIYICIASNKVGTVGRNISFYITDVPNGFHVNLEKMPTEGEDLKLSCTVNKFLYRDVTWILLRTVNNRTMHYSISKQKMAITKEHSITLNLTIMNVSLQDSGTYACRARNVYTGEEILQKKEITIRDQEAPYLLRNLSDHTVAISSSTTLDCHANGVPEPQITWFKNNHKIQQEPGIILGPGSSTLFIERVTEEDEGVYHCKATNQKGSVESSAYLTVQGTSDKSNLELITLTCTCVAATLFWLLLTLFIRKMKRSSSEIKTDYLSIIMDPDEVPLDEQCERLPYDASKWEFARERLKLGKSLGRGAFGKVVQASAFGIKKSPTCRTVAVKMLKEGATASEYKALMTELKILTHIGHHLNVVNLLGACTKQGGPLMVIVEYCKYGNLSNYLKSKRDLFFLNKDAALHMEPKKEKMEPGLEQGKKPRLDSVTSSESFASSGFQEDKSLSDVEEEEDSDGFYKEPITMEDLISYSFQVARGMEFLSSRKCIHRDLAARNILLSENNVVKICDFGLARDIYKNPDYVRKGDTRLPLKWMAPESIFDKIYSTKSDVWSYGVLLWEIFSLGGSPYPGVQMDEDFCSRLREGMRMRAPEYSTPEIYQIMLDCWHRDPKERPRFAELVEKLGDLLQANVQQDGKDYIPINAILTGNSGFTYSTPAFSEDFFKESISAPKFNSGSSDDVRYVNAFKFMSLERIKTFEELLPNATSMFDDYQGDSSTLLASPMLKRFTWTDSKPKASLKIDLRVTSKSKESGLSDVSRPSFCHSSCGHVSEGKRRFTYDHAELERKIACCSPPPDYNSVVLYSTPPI
Chain of Fibroblast growth factor receptor 1 (P11362 whole entry): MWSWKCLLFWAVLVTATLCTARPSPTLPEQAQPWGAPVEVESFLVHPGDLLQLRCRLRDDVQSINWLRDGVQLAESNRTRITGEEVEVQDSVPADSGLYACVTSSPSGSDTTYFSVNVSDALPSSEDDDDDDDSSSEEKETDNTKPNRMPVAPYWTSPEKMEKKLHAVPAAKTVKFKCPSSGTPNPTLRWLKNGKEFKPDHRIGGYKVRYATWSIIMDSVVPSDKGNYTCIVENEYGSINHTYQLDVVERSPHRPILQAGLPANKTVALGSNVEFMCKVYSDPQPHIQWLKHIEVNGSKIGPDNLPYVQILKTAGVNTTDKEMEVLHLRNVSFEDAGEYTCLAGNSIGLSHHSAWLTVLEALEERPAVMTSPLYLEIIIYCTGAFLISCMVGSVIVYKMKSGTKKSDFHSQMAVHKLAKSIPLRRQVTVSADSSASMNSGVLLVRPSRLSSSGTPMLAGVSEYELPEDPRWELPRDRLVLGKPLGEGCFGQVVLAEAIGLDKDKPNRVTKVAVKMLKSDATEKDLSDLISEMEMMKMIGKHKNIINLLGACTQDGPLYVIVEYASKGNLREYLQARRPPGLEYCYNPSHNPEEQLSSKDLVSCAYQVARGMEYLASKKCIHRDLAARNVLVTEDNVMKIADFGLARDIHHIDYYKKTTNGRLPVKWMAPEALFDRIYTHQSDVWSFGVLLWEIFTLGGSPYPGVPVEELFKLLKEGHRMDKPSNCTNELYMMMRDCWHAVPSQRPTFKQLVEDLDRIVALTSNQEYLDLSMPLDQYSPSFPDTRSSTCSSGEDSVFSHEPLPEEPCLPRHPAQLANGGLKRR
Chain of Vascular endothelial growth factor receptor 2 (P35968 whole entry): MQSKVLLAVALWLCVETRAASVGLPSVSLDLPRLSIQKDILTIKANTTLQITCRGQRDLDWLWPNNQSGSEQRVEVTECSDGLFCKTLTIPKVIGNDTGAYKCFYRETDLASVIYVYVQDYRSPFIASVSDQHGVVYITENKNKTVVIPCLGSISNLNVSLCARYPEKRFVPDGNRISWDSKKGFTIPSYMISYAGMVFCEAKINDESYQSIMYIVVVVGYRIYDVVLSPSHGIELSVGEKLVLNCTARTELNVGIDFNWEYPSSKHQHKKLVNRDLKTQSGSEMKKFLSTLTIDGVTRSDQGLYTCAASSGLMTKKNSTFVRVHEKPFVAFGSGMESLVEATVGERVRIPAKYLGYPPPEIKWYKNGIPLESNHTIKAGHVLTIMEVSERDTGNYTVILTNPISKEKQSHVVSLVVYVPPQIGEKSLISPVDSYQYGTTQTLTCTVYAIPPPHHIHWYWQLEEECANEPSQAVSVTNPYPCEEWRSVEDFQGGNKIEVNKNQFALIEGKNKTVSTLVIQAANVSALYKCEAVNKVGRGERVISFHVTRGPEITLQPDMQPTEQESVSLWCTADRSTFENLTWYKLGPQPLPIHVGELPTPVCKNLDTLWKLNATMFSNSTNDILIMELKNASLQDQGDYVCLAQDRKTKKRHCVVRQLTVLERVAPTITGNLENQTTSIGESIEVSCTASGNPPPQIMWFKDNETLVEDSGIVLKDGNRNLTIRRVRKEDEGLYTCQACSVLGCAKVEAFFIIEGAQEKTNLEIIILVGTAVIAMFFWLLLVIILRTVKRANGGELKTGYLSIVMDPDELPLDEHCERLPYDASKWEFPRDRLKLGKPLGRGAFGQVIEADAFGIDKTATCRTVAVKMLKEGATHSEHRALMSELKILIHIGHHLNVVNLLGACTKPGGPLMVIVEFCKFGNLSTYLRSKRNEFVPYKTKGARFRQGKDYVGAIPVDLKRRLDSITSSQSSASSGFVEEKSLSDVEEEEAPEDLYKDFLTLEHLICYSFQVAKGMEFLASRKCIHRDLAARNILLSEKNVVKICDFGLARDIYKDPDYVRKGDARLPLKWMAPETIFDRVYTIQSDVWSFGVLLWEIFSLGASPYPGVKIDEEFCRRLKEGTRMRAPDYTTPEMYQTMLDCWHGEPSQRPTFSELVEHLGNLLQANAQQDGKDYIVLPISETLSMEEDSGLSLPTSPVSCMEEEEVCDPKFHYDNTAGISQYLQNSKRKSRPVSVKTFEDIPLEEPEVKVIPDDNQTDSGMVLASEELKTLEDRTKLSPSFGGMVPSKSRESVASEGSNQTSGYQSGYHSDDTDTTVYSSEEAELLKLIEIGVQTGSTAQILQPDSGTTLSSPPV

Structure (SMILES)	IC50 [1] [nM]	IC50 [2] [nM]	IC50 [3] [nM]	also measured
COCCOc1cc2nccc(Nc3cc(O)c(Cl)cc3F)c2cc1OC	3	< 2	1400	–
COc1cc2c(Nc3ccc(Cl)cc3F)ncnc2cc1OCCn1ccnn1	–	–	–	concentration at 6 h [4]: 49 µM; IC50 (HUVEC): 5000 nM; concentration at 24 h [5]: 10 µM
COc1cc2c(Nc3ccc(C#N)cc3F)ncnc2cc1OCCn1ccnn1	8100	300	45000	IC50 (HUVEC): > 10000 nM; IC50 [6]: 600 nM; IC50 [7]: 3000 nM
COc1cc2c(Nc3ccc(Cl)cc3F)ncnc2cc1OCCn1ccnc1	–	–	–	concentration at 6 h [4]: 11 µM; concentration at 24 h [5]: < 0.1 µM
COc1cc2ncnc(Nc3ccc(Cl)cc3)c2cc1OC	11000	800	> 100000	–
COCCOc1cc2nncc(Nc3ccc(Cl)cc3F)c2cc1OC	63000	–	–	–
COc1cc2c(Nc3ccc(Cl)cc3F)ncnc2cc1OCCOCCN1CCOCC1	500	60	20000	concentration at 6 h [4]: 11 µM; concentration at 24 h [5]: < 0.1 µM
COCC(=O)Nc1cc2ncnc(Nc3cc(O)c(C)cc3F)c2cc1OC	300	300	> 100000	–
COc1cc2c(Nc3c(F)cc(Br)cc3F)ncnc2cc1OCCn1ccnn1	800	40	–	IC50 (HUVEC): 1000 nM; IC50 [6]: 20 nM; IC50 [7]: 100 nM
COCCOc1cc2ncnc(Nc3cccc(O)c3)c2cc1OC	30	< 5	7000	inhibition (Rattus norvegicus [8]): inactive
COc1cc2ncnc(Nc3cc(O)c(C)cc3F)c2cc1OC	30	3	2500	concentration at 6 h [4]: < 0.2 µM; inhibition in vivo at 60 mg/kg (Rattus norvegicus [9]): 80%; concentration at 24 h [5]: < 0.2 µM
COc1cc2ncnc(Nc3ccc(F)cc3F)c2cc1OC	22000	2900	58000	–
COc1cc2ncnc(Nc3ccc(I)cc3Cl)c2cc1OC	> 33000	–	–	–
COc1cc2ncnc(Nc3cccc(O)c3)c2cc1OC	200	–	11000	–
COc1cc2ncnc(Nc3ccc(I)cc3F)c2cc1OC	800	–	–	–
COc1cc2ncnc(Nc3ccccc3F)c2cc1OC	26000	2700	> 100000	–
COc1cc2c(Nc3ccc(Br)cc3F)ncnc2cc1OCCn1ccnn1 [ZD-4190 FREE BASE]	700	30	> 100000	IC50 (HUVEC): > 10000 nM; IC50 [7]: 1500 nM
COc1cc2c(Nc3ccc(Cl)cc3F)ncnc2cc1OC1CCN(C)CC1	15000	1500	40000	–
COCCOc1cc2nncc(Nc3cc(O)c(Cl)cc3F)c2cc1OC	50	–	–	–
COc1cc2ncnc(Nc3ccc(F)c(Cl)c3)c2cc1OC	> 100000	800	> 100000	–

More lines, main results first:

IC50 [1] [nM]	IC50 [2] [nM]	IC50 [3] [nM]	Structure (SMILES)	also measured
> 100000	> 100000	> 50000	COCC(=O)Nc1cc2ncnc(Nc3ccc(Cl)cc3F)c2cc1OC	–
100	6	1600	COc1cc2c(Nc3ccc(Cl)cc3F)ncnc2cc1OCCN(C)c1ccncc1	–
900	60	> 100000	COCCOc1cc2ncnc(Nc3ccc(Cl)cc3F)c2cc1OCCOC	–
400	7	27000	COCCOc1cc2ncnc(Nc3ccc(Cl)cc3F)c2cc1OC	inhibition in vivo at 100 mg/kg (Rattus norvegicus [10]): 31%; concentration at 6 h [4]: 12 µM; concentration at 24 h [5]: < 0.1 µM
1200	60	> 33000	COc1cc2c(Nc3ccc(Cl)cc3F)ncnc2cc1OCc1ccncc1	–
300	40	1500	COc1cc2c(Nc3ccc(Cl)cc3F)ncnc2cc1OCCCCN1CCOCC1	–
300	10	9300	COCCOc1cc2nccc(Nc3ccc(Cl)cc3F)c2cc1OC	concentration at 6 h [4]: 3 µM
–	100	7000	COc1cc2ncnc(Nc3ccc(Cl)cc3F)c2cc1OC	inhibition in vivo at 100 mg/kg (Rattus norvegicus [10]): 34%
< 2	< 2	7400	COCCOc1cc2ncnc(Nc3cc(O)c(Cl)cc3F)c2cc1OC	concentration at 6 h [4]: < 0.1 µM; IC50 (HUVEC): 5000 nM; IC50 [6]: 4 nM; IC50 [7]: 800 nM; concentration at 24 h [5]: < 0.1 µM
1500	–	16000	COCCOc1ccc2c(Nc3ccc(Cl)cc3F)ncnc2c1	–
–	9	6700	COc1cc2c(Nc3ccc(Cl)cc3F)ncnc2cc1OCCCN1CCOCC1	inhibition in vivo at 100 mg/kg (Rattus norvegicus [10]): 59%; concentration at 6 h [4]: 4 µM; concentration at 24 h [5]: 0.8 µM
1100	40	19000	COc1cc2c(Nc3ccc(Cl)cc3F)ncnc2cc1OCCN1CCOCC1	–

Reference: ChEMBL document CHEMBL1132549, “Design and structure-activity relationship of a new class of potent VEGF receptor tyrosine kinase inhibitors” (J Med Chem, 1999)
